From article PMC6718324 (European journal of medicinal chemistry, 2019)

Tests used:
[1] = tested on: hCAR; test: hCAR nuclear translocation assay in HPH; type: cell-based, human; conditions: Ad-EYFP-hCAR-infected HPH, 1 μM, 8 h
[2] = cited from earlier work
[3] = target: T1, hCAR (Homo sapiens, UniProt Q14994); test: hCAR agonist luciferase reporter gene assay; type: cell-based; conditions: for fold decrease in potency (EC50) compared to compound 2: hCAR EC50 vs parent compound 2; for hCAR agonist activity (in words): hCAR luciferase reporter
T1 sequence (Q14994 1-348 isoform Q14994-2): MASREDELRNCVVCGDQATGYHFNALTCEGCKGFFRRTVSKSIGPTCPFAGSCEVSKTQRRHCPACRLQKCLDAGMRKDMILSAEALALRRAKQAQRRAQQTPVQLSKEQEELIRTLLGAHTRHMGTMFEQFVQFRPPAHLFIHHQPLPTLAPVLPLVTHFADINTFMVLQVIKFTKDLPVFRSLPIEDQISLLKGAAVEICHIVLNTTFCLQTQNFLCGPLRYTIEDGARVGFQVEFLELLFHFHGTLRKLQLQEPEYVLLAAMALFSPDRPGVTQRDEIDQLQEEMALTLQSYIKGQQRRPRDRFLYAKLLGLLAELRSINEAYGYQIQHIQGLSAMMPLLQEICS
T1 sequence (P19793 1-462 partner): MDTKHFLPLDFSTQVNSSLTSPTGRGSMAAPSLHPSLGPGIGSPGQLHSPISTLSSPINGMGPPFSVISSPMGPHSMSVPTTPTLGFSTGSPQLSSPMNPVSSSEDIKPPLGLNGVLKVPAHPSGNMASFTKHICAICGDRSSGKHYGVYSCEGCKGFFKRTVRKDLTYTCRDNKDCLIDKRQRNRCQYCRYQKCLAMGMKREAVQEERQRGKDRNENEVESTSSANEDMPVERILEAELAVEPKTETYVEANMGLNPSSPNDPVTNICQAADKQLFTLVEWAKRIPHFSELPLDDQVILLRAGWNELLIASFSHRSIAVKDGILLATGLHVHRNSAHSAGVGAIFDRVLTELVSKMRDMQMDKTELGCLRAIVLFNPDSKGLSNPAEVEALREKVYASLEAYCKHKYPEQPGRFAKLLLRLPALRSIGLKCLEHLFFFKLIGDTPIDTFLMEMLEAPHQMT

[4] = target: T2, hPXR (Homo sapiens, UniProt O75469); test: HepG2 cell reporter assay, hPXR activation; type: cell-based; conditions: 1 μM; for hPXR activation in HepG2 cell reporter assay (in words): normalized against rifampicin; for selectivity for hCAR over hPXR (in words): HepG2 cell reporter assays
T2 sequence (O75469 1-434): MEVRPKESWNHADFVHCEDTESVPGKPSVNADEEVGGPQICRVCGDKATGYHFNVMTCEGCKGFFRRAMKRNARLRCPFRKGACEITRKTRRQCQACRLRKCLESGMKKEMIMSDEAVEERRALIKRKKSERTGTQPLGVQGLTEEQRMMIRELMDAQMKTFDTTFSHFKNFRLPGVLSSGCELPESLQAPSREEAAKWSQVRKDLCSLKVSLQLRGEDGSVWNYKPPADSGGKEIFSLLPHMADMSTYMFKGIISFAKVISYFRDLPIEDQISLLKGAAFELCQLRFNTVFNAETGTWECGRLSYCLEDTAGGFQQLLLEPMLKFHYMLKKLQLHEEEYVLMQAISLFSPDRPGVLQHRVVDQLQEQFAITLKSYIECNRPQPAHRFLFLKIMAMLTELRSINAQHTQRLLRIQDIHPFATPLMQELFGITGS

[5] = tested on: hCAR; test: HepG2 cell reporter assay, hCAR activation; type: cell-based, human; conditions: 1 μM; normalized against CITCO
[6] = Stability; type: physicochemical
[7] = tested on: SU-DHL-4 cells; test: CHOP-mediated cytotoxicity in HPH/SU-DHL-4 co-culture; type: cell-based, human

Structure (SMILES): Clc1ccc(-c2nc3sccn3c2/C=N/OCc2ccc(Cl)c(Cl)c2)cc1 [CITCO, 6-(4-chlorophenyl)imidazo-[2,1-b]thiazole-5-carbaldehyde-O-(3,4-dichlorobenzyl)oxime, reference compound]
- hCAR translocation from cytoplasm to nucleus (in words) [1]: efficiently translocated into the nucleus
- stability of results in hCAR luciferase gene reporter assay (in words) [2]: unstable results

Structure (SMILES): Clc1ccc(-c2nc3sccn3c2CNCCc2ccc(Cl)c(Cl)c2)cc1 [Compound 2, N-((6-(4-Chlorophenyl)imidazo[2,1-b]thiazol-5-yl)methyl)-2-(3,4-dichlorophenyl)ethan-1-amine]
- fold increase in potency compared to CITCO ([3]; hCAR EC50 vs CITCO): 1.4 fold

Structure (SMILES): Clc1ccc(-c2nc3sccn3c2COCCc2ccc(Cl)c(Cl)c2)cc1 [Compound 5, 6-(4-Chlorophenyl)-5-((3,4-dichlorophenethoxy)methyl)imidazo[2,1-b]thiazole]
- hPXR activation in HepG2 cell reporter assay (in words) [4]: significantly activated hPXR

Structure (SMILES): Cc1cn2c(CNCCc3ccc(Cl)c(Cl)c3)c(-c3ccc(Cl)cc3)nc2s1 [Compound 6, N-((6-(4-Chlorophenyl)-2-methylimidazo[2,1-b]thiazol-5-yl)methyl)-2-(3,4-dichlorophenyl)ethan-1-amine]
- fold decrease in potency (EC50) compared to compound 2 [3]: 5.5 fold

Structure (SMILES): Clc1ccc(-c2nc3occn3c2CNCCc2ccc(Cl)c(Cl)c2)cc1 [Compound 7, N-((6-(4-Chlorophenyl)imidazo[2,1-b]oxazol-5-yl)methyl)-2-(3,4-dichlorophenyl)ethan-1-amine]
- fold decrease in potency (EC50) compared to compound 2 [3]: 3.2 fold
- hCAR activation in HepG2 cell reporter assay (in words) [5]: slight decrease in hCAR activation potency
- selectivity for hCAR over hPXR (in words) [4]: good specificity for hCAR

Structure (SMILES): Clc1ccc(-c2nc3ncccn3c2CNCCc2ccc(Cl)c(Cl)c2)cc1 [Compound 8, N-((2-(4-Chlorophenyl)imidazo[1,2-a]pyrimidin-3-yl)methyl)-2-(3,4-dichlorophenyl)ethan-1-amine]
- fold decrease in potency (EC50) compared to compound 2 [3]: 2 fold
- hCAR activation in HepG2 cell reporter assay (in words) [5]: less potent compared to CITCO

Structure (SMILES): Clc1ccc(CCNCc2c(-c3ccc(Cl)cc3)nc3sccn23)cc1 [Compound 9, 2-(4-Chlorophenyl)-N-((6-(4-chlorophenyl)imidazo[2,1-b]thiazol-5-yl)methyl)ethan-1-amine]
- fold decrease in potency (EC50) compared to compound 2 [3]: 1.6 fold
- selectivity for hCAR over hPXR (in words) [4]: maintaining selectivity for hCAR against hPXR

Structure (SMILES): Clc1ccc(-c2nc3sccn3c2CNCCc2cccc(Cl)c2)cc1 [Compound 10, 2-(3-Chlorophenyl)-N-((6-(4-chlorophenyl)imidazo[2,1-b]thiazol-5-yl)methyl)ethan-1-amine]
- fold decrease in potency (EC50) compared to compound 2 [3]: 7 fold

Structure (SMILES): Clc1ccc(-c2nc3sccn3c2CNCCc2ccccc2)cc1 [Compound 14, N-((6-(4-Chlorophenyl)imidazo[2,1-b]thiazol-5-yl)methyl)-2-phenylethan-1-amine]
- hCAR agonist activity (in words) [3]: potent hCAR agonist
- selectivity for hCAR over hPXR (in words) [4]: maintaining selectivity for hCAR against hPXR

Structure (SMILES): Clc1ccc(-c2nc3sccn3c2CNCc2ccccc2)cc1 [Compound 15, N-Benzyl-1-(6-(4-chlorophenyl)imidazo[2,1-b]thiazol-5-yl)methanamine]
- fold decrease in potency compared to compound 14 ([3]; hCAR EC50, analog one CH2 shorter than 14): over 11 fold

Structure (SMILES): Clc1ccc(-c2nc3sccn3c2CNC2Cc3ccccc3C2)cc1 [Compound 17, N-((6-(4-Chlorophenyl)imidazo[2,1-b]thiazol-5-yl)methyl)-2,3-dihydro-1H-inden-2-amine]
- selectivity for hCAR over hPXR (in words) [4]: maintaining selectivity for hCAR against hPXR

Structure (SMILES): Clc1ccc(-c2nc3sccn3c2CNc2ccc3ccccc3c2)cc1 [Compound 18, N-((6-(4-Chlorophenyl)imidazo[2,1-b]thiazol-5-yl)methyl)naphthalen-2-amine]
- hCAR agonist activity (in words) [3]: inactive

Structure (SMILES): CCc1nc2sccn2c1CNCCc1ccc(Cl)c(Cl)c1 [Compound 19, 2-(3,4-Dichlorophenyl)-N-((6-ethylimidazo[2,1-b]thiazol-5-yl)methyl)ethan-1-amine]
- hCAR agonist activity (in words) [3]: dramatic drop in hCAR activity

Structure (SMILES): Clc1cccc(-c2nc3sccn3c2CNCCc2ccc(Cl)c(Cl)c2)c1 [Compound 20, N-((6-(3-Chlorophenyl)imidazo[2,1-b]thiazol-5-yl)methyl)-2-(3,4-dichlorophenyl)ethan-1-amine]
- fold decrease in potency (EC50) compared to compound 2 [3]: 2.3 fold

Structure (SMILES): FC(F)(F)c1ccc(-c2nc3sccn3c2CNCCc2ccc(Cl)c(Cl)c2)cc1 [Compound 22, 2-(3,4-Dichlorophenyl)-N-((6-(4-(trifluoromethyl)phenyl)imidazo[2,1-b]thiazol-5-yl)methyl)ethan-1-amine]
- hCAR agonist activity (in words) [3]: much weaker agonist

Structure (SMILES): Fc1ccc(-c2nc3sccn3c2CNCCc2ccc(Cl)c(Cl)c2)cc1 [Compound 23, 2-(3,4-Dichlorophenyl)-N-((6-(4-fluorophenyl)imidazo[2,1-b]thiazol-5-yl)methyl)ethan-1-amine]
- hCAR activation in HepG2 cell reporter assay (in words) [5]: slightly decreased activation potency

Structure (SMILES): Clc1ccc(CCNCc2c(-c3ccccc3)nc3sccn23)cc1Cl [Compound 24, 2-(3,4-Dichlorophenyl)-N-((6-phenylimidazo[2,1-b]thiazol-5-yl)methyl)ethan-1-amine]
- hCAR activation in HepG2 cell reporter assay (in words) [5]: slightly decreased activation potency

Structure (SMILES): N#Cc1ccc(-c2nc3sccn3c2CNCCc2ccc(Cl)c(Cl)c2)cc1 [Compound 27, 4-(5-(((3,4-Dichlorophenethyl)amino)methyl)imidazo[2,1-b]thiazol-6-yl)benzonitrile]
- hCAR agonist activity (in words) [3]: significantly less active

Structure (SMILES): CC(C)(C)c1ccc(-c2nc3sccn3c2CNCCc2ccc(Cl)c(Cl)c2)cc1 [Compound 28, N-((6-(4-(tert-Butyl)phenyl)imidazo[2,1-b]thiazol-5-yl)methyl)-2-(3,4-dichlorophenyl)ethan-1-amine]
- hCAR agonist activity (in words) [3]: significantly less active

Structure (SMILES): Clc1ccc(CCNCc2c(-c3ccc4ccccc4c3)nc3sccn23)cc1Cl [Compound 29, 2-(3,4-Dichlorophenyl)-N-((6-(naphthalen-2-yl)imidazo[2,1-b]thiazol-5-yl)methyl)ethan-1-amine]
- fold decrease in potency (EC50) compared to compound 2 [3]: 3 fold
- hCAR activation in HepG2 cell reporter assay (in words) [5]: slight increase in activation of hCAR
- selectivity for hCAR over hPXR (in words) [4]: retained selectivity for hCAR over hPXR

Structure (SMILES): c1ccc(CCNCc2c(-c3ccc4ccccc4c3)nc3sccn23)cc1 [Compound 30, N-((6-(Naphthalen-2-yl)imidazo[2,1-b]thiazol-5-yl)methyl)-2-phenylethan-1-amine]
- hPXR activation in HepG2 cell reporter assay (in words) [4]: significantly activated hPXR

Structure (SMILES): c1ccc2c(c1)CC(NCc1c(-c3ccc4ccccc4c3)nc3sccn13)C2 [Compound 31, N-((6-(Naphthalen-2-yl)imidazo[2,1-b]thiazol-5-yl)methyl)-2,3-dihydro-1H-inden-2-amine]
- hCAR activation in HepG2 cell reporter assay (in words) [5]: enhanced hCAR activation over CITCO
- hPXR activation in HepG2 cell reporter assay (in words) [4]: slightly increased

Structure (SMILES): c1ccc2c(c1)CC(NCc1c(-c3ccc4ccccc4c3)nc3occn13)C2 [DL5016, N-((6-(Naphthalen-2-yl)imidazo[2,1-b]oxazol-5-yl)methyl)-2,3-dihydro-1H-inden-2-amine]
- hCAR activation in HepG2 cell reporter assay (in words) [5]: significant improvement in hCAR activation over CITCO
- selectivity for hCAR over hPXR (in words) [4]: maintaining selectivity over hPXR
- stability (in words) [6]: excellent stability
- hCAR translocation from cytoplasm to nucleus (in words) [1]: efficiently translocated into the nucleus
- effect on CHOP-induced cytotoxicity in SU-DHL-4 cells (in words) ([7]; DL5016 1 μM with CHOP, 24 h): significantly enhanced CHOP-induced cytotoxicity
- cytotoxicity of compound alone in co-cultured SU-DHL-4 cells (in words) ([7]; control experiment without CHOP): did not show cytotoxicity
